Source: ChEMBL document CHEMBL4118122, “Identification and biological evaluation of thiazole-based inverse agonists of RORγt” (Bioorg Med Chem Lett, 2018)

Tests used:
[1] = molecular target: Histamine H2 receptor (Homo sapiens, UniProt P25021); assay: Displacement of [125I]APT from human recombinant histamine H2 receptor at 1 uM after 120 mins by scintillation counting analysis relative to control
[2] = species on record: Rattus norvegicus; assay: Binding affinity to rat GABA receptor at 1 uM after 60 mins by agonist radioligand binding assay relative to control
[3] = molecular target: 5-hydroxytryptamine receptor 1A (Homo sapiens) (UniProt P08908); assay: Displacement of [3H]8-OH-DPAT from recombinant human 5-HT1A receptor at 10 uM after 60 mins by scintillation counting analysis relative to control
[4] = molecular target: Death-associated protein kinase 3 (Homo sapiens) (UniProt O43293); assay: Inhibition of recombinant full length GST-tagged human ZIPK expressed in baculovirus expression system at 10 uM in presence of ATP relative to control
[5] = molecular target: Mitogen-activated protein kinase 12 (Homo sapiens) (UniProt P53778); assay: Inhibition of recombinant full length His-tagged human p38gamma expressed in baculovirus expression system at 10 uM in presence of ATP relative to control
[6] = molecular target: Fibroblast growth factor receptor 1 (Homo sapiens) (UniProt P11362); assay: Inhibition of recombinant His-tagged human FGFR1 cytoplasmic domain expressed in baculovirus expression system at 10 uM in presence of ATP relative to control
[7] = molecular target: Nociceptin receptor (Homo sapiens, UniProt P41146); assay: Displacement of [3H]nociceptin from human recombinant NOP receptor after 60 mins by scintillation counting analysis
[8] = Terminal half life in Sprague-Dawley rat at 5 mg/kg, po; format: ADME, organism-based; details: in vivo, read-out: beta t1/2 (converted)
[9] = species on record: Rattus norvegicus; assay: Displacement of [125I]alpha-dendrotoxin from rat brain voltage-gated K channel at 10 uM after 60 mins by scintillation counting analysis relative to control
[10] = molecular target: T1, Mu-type opioid receptor (Homo sapiens, UniProt P35372); assay: Displacement of [3H]DAMGO from human recombinant mu receptor at 1 uM after 120 mins by scintillation counting analysis relative to control
[11] = molecular target: RAC-alpha serine/threonine-protein kinase (Homo sapiens) (UniProt P31749); assay: Inhibition of recombinant full length His-tagged human AKT1 expressed in baculovirus expression system at 10 uM in presence of ATP relative to control
[12] = molecular target: B2 bradykinin receptor (Homo sapiens) (UniProt P30411); assay: Displacement of [3H]bradykinin from human recombinant B2 receptor at 10 uM after 60 mins by scintillation counting analysis relative to control
[13] = molecular target: Cholecystokinin receptor type A (Homo sapiens) (UniProt P32238); assay: Displacement of [125I]CCK-8s from human recombinant CCK1 receptor at 10 uM after 60 mins by scintillation counting analysis relative to control
[14] = molecular target: Proto-oncogene tyrosine-protein kinase receptor Ret (Homo sapiens) (UniProt P07949); assay: Inhibition of recombinant GST-tagged human RET cytoplasmic domain (658 to 1114 residues) expressed in baculovirus expression system at 10 uM in presence of ATP relative to control
[15] = molecular target: Neuropeptide Y receptor type 2 (Homo sapiens) (UniProt P49146); assay: Displacement of [125I]peptide YY from human Y2 receptor at 10 uM after 120 mins by scintillation counting analysis relative to control
[16] = molecular target: Protein kinase C alpha type (Homo sapiens) (UniProt P17252); assay: Inhibition of recombinant full length human PKCalpha expressed in baculovirus expression system at 10 uM in presence of ATP relative to control
[17] = Clearance in Sprague-Dawley rat at 1 mg/kg, iv; format: ADME, organism-based; details: in vivo
[18] = molecular target: B2 bradykinin receptor (Homo sapiens, UniProt P30411); assay: Displacement of [3H]bradykinin from human recombinant B2 receptor after 60 mins by scintillation counting analysis
[19] = molecular target: Glycogen synthase kinase-3 alpha (Homo sapiens) (UniProt P49840); assay: Inhibition of GSK3alpha (unknown origin) at 10 uM in presence of ATP relative to control
[20] = molecular target: Glycogen synthase kinase-3 beta (Homo sapiens) (UniProt P49841); assay: Inhibition of recombinant full length human His-tagged GSK3beta expressed in baculovirus expression system at 10 uM in presence of ATP relative to control
[21] = molecular target: T2, Muscarinic acetylcholine receptor M3 (Homo sapiens, UniProt P20309); assay: Displacement of [3H]4-DAMP from human recombinant M3 receptor after 60 mins by scintillation counting analysis
[22] = molecular target: Vasopressin V1a receptor (Homo sapiens, UniProt P37288); assay: Displacement of [3H]AVP from human recombinant V1a receptor at 10 uM after 60 mins by scintillation counting analysis relative to control
[23] = molecular target: C-C chemokine receptor type 1 (Homo sapiens) (UniProt P32246); assay: Displacement of [125I]MIP-1alpha from human recombinant CCR1 receptor at 10 uM after 120 mins by scintillation counting analysis relative to control
[24] = molecular target: 5-hydroxytryptamine receptor 7 (Homo sapiens, UniProt P34969); assay: Displacement of [3H]LSD from human recombinant 5-HT7 receptor at 10 uM after 120 mins by scintillation counting analysis relative to control
[25] = molecular target: Cytochrome P450 2C19 (Homo sapiens, UniProt P33261); assay: Inhibition of CYP2C19 (unknown origin); format: ADME
[26] = molecular target: 5-hydroxytryptamine receptor 2A (Homo sapiens, UniProt P28223); assay: Displacement of [3H]ketanserin human recombinant 5-HT2A receptor at 10 uM after 60 mins by scintillation counting analysis relative to control
[27] = molecular target: D(2) dopamine receptor (Homo sapiens, UniProt P14416); assay: Displacement of [3H]7-OH-DPAT from human recombinant dopamine D2S receptor at 1 uM after 60 mins by scintillation counting analysis relative to control
[28] = species on record: Homo sapiens; assay: Binding affinity to GABA-gated chloride channel (unknown origin) at 10 uM by antagonist radioligand binding assay relative to control
[29] = molecular target: 5-hydroxytryptamine receptor 1B (Rattus norvegicus, UniProt P28564); assay: Displacement of [125I]-CYP from rat brain 5-HT1B receptor after 120 mins by scintillation counting analysis
[30] = molecular target: T1, Mu-type opioid receptor; assay: Displacement of [3H]DAMGO from human recombinant mu receptor after 120 mins by scintillation counting analysis
[31] = Binding affinity to rat GABA receptor after 60 mins by agonist radioligand binding assay
[32] = molecular target: Muscarinic acetylcholine receptor M2 (Homo sapiens, UniProt P08172); assay: Displacement of [3H]AF-DX 384 from human recombinant M2 receptor after 60 mins by scintillation counting analysis
[33] = molecular target: Delta-type opioid receptor (Homo sapiens, UniProt P41143); assay: Displacement of [3H]DADLE from human recombinant delta opioid receptor after 60 mins by scintillation counting analysis
[34] = molecular target: Melanocortin receptor 4 (Homo sapiens, UniProt P32245); assay: Displacement of [125I]NDP-alpha -MSH from human recombinant MC4 receptor at 10 uM after 120 mins by scintillation counting analysis relative to control
[35] = molecular target: T2, Muscarinic acetylcholine receptor M3; assay: Displacement of [3H]4-DAMP from human recombinant M3 receptor at 1 uM after 60 mins by scintillation counting analysis relative to control

T1 sequence (P35372 whole entry): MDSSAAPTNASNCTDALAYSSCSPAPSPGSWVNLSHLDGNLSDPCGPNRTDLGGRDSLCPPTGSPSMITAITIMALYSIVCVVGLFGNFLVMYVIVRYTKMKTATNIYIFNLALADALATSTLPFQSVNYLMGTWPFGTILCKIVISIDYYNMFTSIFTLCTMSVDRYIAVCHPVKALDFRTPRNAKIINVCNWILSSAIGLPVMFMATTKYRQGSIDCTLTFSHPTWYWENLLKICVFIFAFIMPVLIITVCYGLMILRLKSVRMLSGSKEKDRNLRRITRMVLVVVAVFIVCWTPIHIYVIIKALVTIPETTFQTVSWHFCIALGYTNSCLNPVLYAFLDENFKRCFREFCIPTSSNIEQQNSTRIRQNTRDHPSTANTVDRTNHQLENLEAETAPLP
Sequence of 5-hydroxytryptamine receptor 1B (P28564 whole entry): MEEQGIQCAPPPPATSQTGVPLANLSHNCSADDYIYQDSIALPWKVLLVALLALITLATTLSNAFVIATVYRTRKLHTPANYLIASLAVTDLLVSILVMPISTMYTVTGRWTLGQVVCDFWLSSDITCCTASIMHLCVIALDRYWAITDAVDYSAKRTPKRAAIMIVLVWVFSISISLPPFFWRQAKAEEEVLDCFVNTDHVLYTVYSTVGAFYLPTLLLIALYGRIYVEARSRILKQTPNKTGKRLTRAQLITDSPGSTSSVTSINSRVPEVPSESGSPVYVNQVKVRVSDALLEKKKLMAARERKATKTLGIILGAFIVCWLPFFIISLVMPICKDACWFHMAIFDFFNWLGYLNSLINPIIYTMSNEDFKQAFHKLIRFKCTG
Sequence of Proto-oncogene tyrosine-protein kinase receptor Ret (Homo sapiens) (P07949 whole entry, the tested form may be a part): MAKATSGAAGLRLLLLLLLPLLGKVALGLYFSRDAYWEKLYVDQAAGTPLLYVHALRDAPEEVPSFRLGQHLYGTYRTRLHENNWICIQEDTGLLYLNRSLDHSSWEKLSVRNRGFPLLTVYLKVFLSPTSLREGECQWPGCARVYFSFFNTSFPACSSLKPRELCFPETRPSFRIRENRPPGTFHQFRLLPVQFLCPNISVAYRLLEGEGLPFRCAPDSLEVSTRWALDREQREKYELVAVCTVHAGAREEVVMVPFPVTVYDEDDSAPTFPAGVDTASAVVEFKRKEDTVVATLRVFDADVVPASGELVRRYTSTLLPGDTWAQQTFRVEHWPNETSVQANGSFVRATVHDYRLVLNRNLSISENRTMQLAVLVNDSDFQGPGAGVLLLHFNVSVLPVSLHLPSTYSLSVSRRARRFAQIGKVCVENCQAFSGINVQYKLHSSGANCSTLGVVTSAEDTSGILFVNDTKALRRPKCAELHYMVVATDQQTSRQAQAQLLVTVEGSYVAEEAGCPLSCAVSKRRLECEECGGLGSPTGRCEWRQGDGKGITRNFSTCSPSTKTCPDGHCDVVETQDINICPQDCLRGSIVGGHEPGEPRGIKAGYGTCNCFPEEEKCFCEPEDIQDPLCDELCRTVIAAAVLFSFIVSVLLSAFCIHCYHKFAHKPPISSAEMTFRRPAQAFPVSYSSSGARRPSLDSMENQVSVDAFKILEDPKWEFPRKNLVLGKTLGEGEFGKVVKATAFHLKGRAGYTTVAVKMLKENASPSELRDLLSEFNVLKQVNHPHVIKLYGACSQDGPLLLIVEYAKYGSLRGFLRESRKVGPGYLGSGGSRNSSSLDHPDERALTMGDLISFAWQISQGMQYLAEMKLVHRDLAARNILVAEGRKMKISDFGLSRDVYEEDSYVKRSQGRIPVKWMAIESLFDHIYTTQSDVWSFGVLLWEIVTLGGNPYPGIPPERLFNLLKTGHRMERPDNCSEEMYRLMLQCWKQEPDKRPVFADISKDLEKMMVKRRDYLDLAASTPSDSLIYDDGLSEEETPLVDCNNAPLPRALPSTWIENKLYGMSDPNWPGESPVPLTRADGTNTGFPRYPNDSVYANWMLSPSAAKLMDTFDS
Sequence of Histamine H2 receptor (P25021 whole entry): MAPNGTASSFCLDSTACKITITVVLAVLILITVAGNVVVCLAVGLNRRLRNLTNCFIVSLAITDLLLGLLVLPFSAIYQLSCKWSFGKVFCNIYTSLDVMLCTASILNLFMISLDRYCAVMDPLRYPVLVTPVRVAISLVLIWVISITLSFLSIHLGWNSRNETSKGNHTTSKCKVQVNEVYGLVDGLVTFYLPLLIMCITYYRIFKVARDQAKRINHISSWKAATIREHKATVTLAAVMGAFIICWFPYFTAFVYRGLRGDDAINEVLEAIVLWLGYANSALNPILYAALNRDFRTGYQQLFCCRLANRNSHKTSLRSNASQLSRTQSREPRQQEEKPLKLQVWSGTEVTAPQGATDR
Sequence of Muscarinic acetylcholine receptor M2 (P08172 whole entry): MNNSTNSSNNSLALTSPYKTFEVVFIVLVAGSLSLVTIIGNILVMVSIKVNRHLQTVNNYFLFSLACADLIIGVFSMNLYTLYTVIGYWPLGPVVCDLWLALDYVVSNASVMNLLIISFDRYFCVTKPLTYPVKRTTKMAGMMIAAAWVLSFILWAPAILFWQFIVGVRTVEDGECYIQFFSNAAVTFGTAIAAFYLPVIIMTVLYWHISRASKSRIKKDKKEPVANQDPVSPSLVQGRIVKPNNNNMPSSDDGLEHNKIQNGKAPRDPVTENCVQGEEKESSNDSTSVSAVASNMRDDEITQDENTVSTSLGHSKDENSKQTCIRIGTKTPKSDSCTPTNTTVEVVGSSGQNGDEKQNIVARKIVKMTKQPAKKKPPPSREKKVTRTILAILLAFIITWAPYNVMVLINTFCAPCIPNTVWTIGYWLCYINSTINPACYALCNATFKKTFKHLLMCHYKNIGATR
Sequence of 5-hydroxytryptamine receptor 2A (P28223 whole entry): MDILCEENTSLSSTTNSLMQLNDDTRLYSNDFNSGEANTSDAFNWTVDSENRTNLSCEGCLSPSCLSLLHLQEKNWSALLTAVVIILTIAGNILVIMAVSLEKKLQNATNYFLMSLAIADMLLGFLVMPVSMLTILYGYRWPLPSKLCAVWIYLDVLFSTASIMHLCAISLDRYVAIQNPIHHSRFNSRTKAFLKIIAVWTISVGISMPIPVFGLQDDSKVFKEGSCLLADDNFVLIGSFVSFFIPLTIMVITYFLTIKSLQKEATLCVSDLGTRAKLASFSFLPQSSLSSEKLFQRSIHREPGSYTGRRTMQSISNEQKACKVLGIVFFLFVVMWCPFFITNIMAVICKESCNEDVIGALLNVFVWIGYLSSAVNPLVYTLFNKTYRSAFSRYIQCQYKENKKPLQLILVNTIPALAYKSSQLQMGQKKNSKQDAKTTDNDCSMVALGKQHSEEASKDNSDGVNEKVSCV
Sequence of Delta-type opioid receptor (P41143 whole entry): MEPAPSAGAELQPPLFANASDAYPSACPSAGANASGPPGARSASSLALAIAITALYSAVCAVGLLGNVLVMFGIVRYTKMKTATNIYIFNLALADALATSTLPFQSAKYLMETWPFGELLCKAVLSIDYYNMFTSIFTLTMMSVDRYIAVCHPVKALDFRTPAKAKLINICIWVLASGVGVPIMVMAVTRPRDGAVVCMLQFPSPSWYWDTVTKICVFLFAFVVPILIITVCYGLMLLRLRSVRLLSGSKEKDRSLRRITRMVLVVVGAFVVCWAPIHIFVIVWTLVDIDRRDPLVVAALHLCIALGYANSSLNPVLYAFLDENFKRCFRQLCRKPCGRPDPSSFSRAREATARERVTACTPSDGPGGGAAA
Sequence of Mitogen-activated protein kinase 12 (Homo sapiens) (P53778 whole entry, the tested form may be a part): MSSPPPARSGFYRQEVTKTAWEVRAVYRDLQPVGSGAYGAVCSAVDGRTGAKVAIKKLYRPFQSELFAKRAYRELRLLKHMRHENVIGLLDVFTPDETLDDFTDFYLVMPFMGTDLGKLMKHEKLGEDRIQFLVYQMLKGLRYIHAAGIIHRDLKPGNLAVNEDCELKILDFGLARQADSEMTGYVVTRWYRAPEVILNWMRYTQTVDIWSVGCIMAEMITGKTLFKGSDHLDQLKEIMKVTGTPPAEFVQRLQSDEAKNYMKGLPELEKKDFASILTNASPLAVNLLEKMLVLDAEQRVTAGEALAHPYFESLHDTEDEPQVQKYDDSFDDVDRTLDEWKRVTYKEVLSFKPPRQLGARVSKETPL
Sequence of Nociceptin receptor (P41146 whole entry): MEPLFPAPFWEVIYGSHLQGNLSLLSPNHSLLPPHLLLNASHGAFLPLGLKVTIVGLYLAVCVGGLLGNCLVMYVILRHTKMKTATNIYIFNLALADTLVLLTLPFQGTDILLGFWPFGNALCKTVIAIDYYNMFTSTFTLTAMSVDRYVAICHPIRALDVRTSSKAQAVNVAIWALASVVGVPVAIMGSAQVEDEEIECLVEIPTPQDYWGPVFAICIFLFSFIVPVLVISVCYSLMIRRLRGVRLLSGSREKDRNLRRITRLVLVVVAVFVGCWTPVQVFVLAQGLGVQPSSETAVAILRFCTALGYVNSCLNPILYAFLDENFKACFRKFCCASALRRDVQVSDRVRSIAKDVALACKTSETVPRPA

CC(C)(C)NS(=O)(=O)c1ccc(-c2sc(C(=O)N[C@H]3C[C@H](C(=O)O)C3)nc2CC2CCCCC2)c2ccccc12
inhibition [1]: < 10%
inhibition [2]: < 10%
inhibition [3]: 16%
inhibition [4]: -5%
inhibition [5]: -2%
inhibition [6]: 2%
IC50 [7]: 0.98 nM
half-life [8]: 126 min
inhibition [9]: < 10%
inhibition [10]: < 10%
inhibition [11]: -5%
inhibition [12]: < 10%
inhibition [13]: 54%
inhibition [14]: -3%
inhibition [15]: < 10%
inhibition [16]: -1%
clearance [17]: 51.4 mL/min/kg
IC50 [18]: 21 nM
inhibition [19]: 0%
inhibition [20]: -3%
IC50 [21]: 0.73 nM
inhibition [22]: 10%
inhibition [23]: < 10%
inhibition [24]: 10%
INH [25]: > 10 µM
inhibition [26]: < 10%
inhibition [27]: < 10%
inhibition [28]: 86%
IC50 [29]: 14 nM
IC50 [30]: 1.1 nM
IC50 [31]: 114 nM
IC50 [32]: 48 nM
IC50 [33]: 6 nM
inhibition [34]: 25%
inhibition [35]: < 10%
